≈ marks a conversion by molar mass, not a printed value.
Experiments:
[1] = Inhibition of beta-1,3-glucan synthase in Candida albicans MY1055 microsomal membrane using UDP-[3H]-glucose as substrate incubated for 2 hrs in presence of UTP by radioactivity-based assay; assay type: cell membranes
Candida albicans [2] = assay: Antifungal activity against Candida albicans MY1055 assessed as fungal growth inhibition measured after 24 hrs by liquid microdilution method; assay type: functional
Aspergillus fumigatus [3] = assay: Antifungal activity against Aspergillus fumigatus MF5668 assessed as fungal growth inhibition measured after 24 hrs by liquid microdilution method; assay type: functional; settings: read-out: MEC
[4] = Oral bioavailability in mouse; assay type: ADME, organism-based; settings: in vivo
Candida albicans [5] = assay: Antifungal activity against Candida albicans MY1055 infected in DBA/2 mouse model assessed as log change in colony forming units in kidney at 6.5 mg/kg, po bid for 2 days and measured after 4 days by TOKA; assay type: functional; settings: time 2 day
Candida albicans [6] = assay: Antifungal activity against Candida albicans MY1055 infected in DBA mouse model assessed as log change in colony forming units in kidney at 12.5 mg/kg, po bid for 2 days and measured after 4 days by TOKA; assay type: functional; settings: time 2 day
Candida albicans [7] = assay: Antifungal activity against Candida albicans MY1055 infected in DBA/2 mouse model assessed as log change in colony forming units in kidney at 25 mg/kg, po bid for 2 days and measured after 4 days by TOKA; assay type: functional; settings: time 2 day
Nakaseomyces glabratus = assay: Antifungal activity against Candida glabrata MY1381 assessed as fungal growth inhibition; assay type: functional
Pichia kudriavzevii = assay: Antifungal activity against Candida krusei ATCC 6258 assessed as fungal growth inhibition; assay type: functional
Candida tropicalis = assay: Antifungal activity against Candida tropicalis MY1012 assessed as fungal growth inhibition; assay type: functional
Clavispora lusitaniae = assay: Antifungal activity against Clavispora lusitaniae MY1396 assessed as fungal growth inhibition; assay type: functional
Candida parapsilosis = assay: Antifungal activity against Candida parapsilosis ATCC 22019 assessed as fungal growth inhibition; assay type: functional; settings: Lodderomyces parapsilosis
[8] = Clearance in mouse; assay type: ADME, organism-based; settings: in vivo
[9] = Half lie in mouse; assay type: ADME, organism-based; settings: in vivo
[10] = Clearance in rat; assay type: ADME; settings: in vivo
[11] = Half life in rat; assay type: ADME; settings: in vivo
[12] = Oral bioavailability in rat; assay type: ADME, organism-based; settings: in vivo
[13] = Clearance in dog; assay type: ADME, Canis lupus familiaris; settings: in vivo
[14] = Half life in dog; assay type: ADME, Canis lupus familiaris; settings: in vivo
[15] = Oral bioavailability in dog; assay type: ADME, organism-based, Canis lupus familiaris; settings: in vivo
[16] = Clearance in rhesus monkey; assay type: ADME, Macaca mulatta; settings: in vivo
[17] = Half life in rhesus monkey; assay type: ADME, Macaca mulatta; settings: in vivo
[18] = Oral bioavailability in rhesus monkey; assay type: ADME, organism-based, Macaca mulatta; settings: in vivo
Candida albicans [19] = assay: Antifungal activity against Candida albicans MY1055 infected in DBA/2N mouse model assessed as mouse survival at 6.5 mg/kg, po bid for 7 days and measured post-last dose by TOKA relative to control; assay type: functional; settings: 168 h, time 7 day
Candida albicans [20] = assay: Antifungal activity against Candida albicans MY1055 infected in DBA/2N mouse model assessed as mouse survival at 12.5 mg/kg, po bid for 7 days and measured post-last dose by TOKA relative to control; assay type: functional; settings: 168 h, time 7 day
Candida albicans [21] = assay: Antifungal activity against Candida albicans MY1055 infected in DBA/2N mouse model assessed as mouse survival at 25 mg/kg, po bid for 7 days and measured post-last dose by TOKA relative to control; assay type: functional; settings: 168 h, time 7 day
Candida albicans [22] = assay: Antifungal activity against Candida albicans MY1055 infected in DBA/2N mouse model assessed as mouse survival at 12.5 mg/kg, ip bid for 7 days and measured post-last dose by TOKA relative to control; assay type: functional; settings: 168 h, time 7 day
Candida albicans [23] = assay: Antifungal activity against Candida albicans MY1055 infected in DBA/2N mouse model administered for 7 days by TOKA; assay type: functional; settings: MY1055, 168 h, time 7 day
Aspergillus fumigatus [24] = assay: Antifungal activity against Aspergillus fumigatus MF5668 infected in DBA/2N mouse assessed as mouse survival at 12.5 mg/kg, ip bid administered for 7 days starting from 30 mins post infection and measured up to 21 days relative to control; assay type: functional; settings: 168 h, time 7 day
Aspergillus fumigatus [25] = assay: Antifungal activity against Aspergillus fumigatus MF5668 infected in DBA/2N mouse assessed as mouse survival at 6.25 mg/kg, ip bid administered for 7 days starting from 30 mins post infection and measured up to 21 days relative to control; assay type: functional; settings: 168 h, time 7 day
Aspergillus fumigatus [26] = assay: Antifungal activity against Aspergillus fumigatus MF5668 infected in DBA/2N mouse assessed as mouse survival at 3.125 mg/kg, ip bid administered for 7 days starting from 30 mins post infection and measured up to 21 days relative to control; assay type: functional; settings: 168 h, time 7 day
Aspergillus fumigatus [27] = assay: Antifungal activity against Aspergillus fumigatus MF5668 infected in DBA/2N mouse assessed as mouse survival at 1.56 mg/kg, ip bid administered for 7 days starting from 30 mins post infection and measured up to 21 days relative to control; assay type: functional; settings: 168 h, time 7 day
Aspergillus fumigatus [28] = assay: Antifungal activity against Aspergillus fumigatus MF5668 infected in DBA/2N mouse assessed as mean survival days at 12.5 mg/kg, ip bid administered for 7 days starting from 30 mins post infection and measured up to 21 days relative to control; assay type: functional; settings: time 7 day
Aspergillus fumigatus [29] = assay: Antifungal activity against Aspergillus fumigatus MF5668 infected in DBA/2N mouse assessed as mean survival days at 6.25 mg/kg, ip bid administered for 7 days starting from 30 mins post infection and measured up to 21 days relative to control; assay type: functional; settings: time 7 day
Aspergillus fumigatus [30] = assay: Antifungal activity against Aspergillus fumigatus MF5668 infected in DBA/2N mouse assessed as mean survival days at 3.125 mg/kg, ip bid administered for 7 days starting from 30 mins post infection and measured up to 21 days relative to control; assay type: functional; settings: time 7 day
Aspergillus fumigatus [31] = assay: Antifungal activity against Aspergillus fumigatus MF5668 infected in DBA/2N mouse assessed as mean survival days at 1.56 mg/kg, ip bid administered for 7 days starting from 30 mins post infection and measured up to 21 days relative to control; assay type: functional; settings: time 7 day
Candida albicans [32] = assay: Antifungal activity against Candida albicans MY1055 assessed as fungal growth inhibition measured after 24 hrs in presence of mouse serum by liquid microdilution method; assay type: functional

With `CC(C)[C@@H](C)[C@@]1(C)CC[C@]2(C)[C@H]3CC[C@@H]4[C@@]5(COC[C@]4(C)[C@@H](OC[C@](C)(N)C(C)(C)C)[C@H](n4ncnc4C(N)=O)C5)C3=CC[C@@]2(C)[C@@H]1C(=O)O` the IC50 [1] was 0.003 µg/mL, the MIC (Candida albicans [2]) was 0.06 µg/mL (≈ 0.0862 µM) and the minimal effective concentration (Aspergillus fumigatus [3]) was less than 0.03 µg/mL. The bioavailability [4] was 12%, the Activity (Candida albicans [5]) was -1.5 log CFU and the Activity (Candida albicans [6]) was -2.5 log CFU. For the same compound, the Activity (Candida albicans [7]) was -2.2 log CFU, the MIC (Nakaseomyces glabratus) was 0.125 µg/mL (≈ 0.18 µM) and the MIC (Pichia kudriavzevii) was 1 µg/mL (≈ 1.44 µM). The MIC (Candida tropicalis) was 0.5 µg/mL (≈ 0.718 µM), the MIC (Clavispora lusitaniae) was 0.125 µg/mL (≈ 0.18 µM) and the MIC (Candida parapsilosis) was 0.06 µg/mL (≈ 0.0862 µM). For the same compound, the clearance [8] was 11 mL/min/kg, the half-life [9] was 5.1 h and the clearance [10] was 6 mL/min/kg. For the same compound, the half-life [11] was 5.5 h, the bioavailability [12] was 17% and the clearance [13] was 2 mL/min/kg. The half-life [14] was 12.3 h, the bioavailability [15] was 35% and the clearance [16] was 4 mL/min/kg. The half-life [17] was 8.5 h, the bioavailability [18] was 12% and the survival at 6.5 mg/kg (Candida albicans [19]) was 100%. The survival at 12.5 mg/kg (Candida albicans [20]) was 100%, the survival at 25 mg/kg (Candida albicans [21]) was 80% and the survival at 12.5 mg/kg (Candida albicans [22]) was 100%. The ED99 (Candida albicans [23]) was 6.4 mg/kg, the survival at 12.5 mg/kg (Aspergillus fumigatus [24]) was 60% and the survival at 6.25 mg/kg (Aspergillus fumigatus [25]) was 40%. The survival at 3.125 mg/kg (Aspergillus fumigatus [26]) was 10%, the survival at 1.56 mg/kg (Aspergillus fumigatus [27]) was 0% and the MSD (Aspergillus fumigatus [28]) was 14.4 days. The MSD (Aspergillus fumigatus [29]) was 12.5 days, the MSD (Aspergillus fumigatus [30]) was 7.3 days and the MSD (Aspergillus fumigatus [31]) was 6.5 days. It also gave an MIC (Candida albicans [32]) of 2 µg/mL.
